“Also recorded” adds a separate entry of the source.
Legend:
liver fibrosis = assay: Myofibroblast activation and liver fibrosis during EtOH-associated hepatocarcinogenesis in diabetic mice; type: in vivo
Description: Fibrosis is characterized by myofibroblast cell activation and excessive collagen deposition. Extensive fibrotic reaction has been reported during NASH to HCC transition through the chemical and dietary intervention by STZ/HFD cotreatment.^4 We compared effects of 753B and control compound on liver fibrosis in the diabetic animals after 5-month drug administration. […] Decreased liver fibrosis was further verified after quantitative measurement of collagen content based on hydroxyproline assay in livers exposed to 753B administration (1031.8±116.4 versus 721.2±215.0) (FIG. 17D). Ishak score of the liver tissue in the livers were also analyzed. Grade 0 has no fibrosis. Grade 1 has fibrous expansion of some portal areas, with or without short fibrous septa. Grade 2 contains fibrous expansion of most portal areas, with or without short fibrous septa. Grade 3 has fibrous expansion of most portal areas with an occasional portal to portal bridging. Grade 4 contains fibrous expansion of portal areas with marked bridging including portal-portal and portal-central bridging. Grade 5 has marked portal-portal and portal-central bridging with occasional nodules (incomplete cirrhosis). Grade 6 has cirrhosis, probable or define.

senescent cells [1] = assay: Senolytic activity in livers of aging and STZ/HFD-treated mice; type: in vivo; conditions: data not shown
Bcl-xL = molecular target: T1, Bcl-xL (Mus musculus, UniProt Q64373); assay: Western blotting of Bcl-xL in STZ/EtOH-treated diabetic livers; type: in vivo, mice; conditions: 5 mg/kg i.p. every other day, five-month administration, 6-month feeding of 5% ethanol, vs vehicle controls
T1 construct: from tissue; host or cells: liver of STZ/EtOH-treated diabetic mice
Description: PROTACs are bivalent small molecules containing a ligand that recognizes a target protein linked to another ligand that recruits a specific E3 ubiquitin ligase.^46,47 PROTAC binding induces proximity-induced ubiquitination of the target protein and its subsequent degradation by proteasomes. PROTACs act catalytically to induce protein degradation in a sub-stoichiometric manner. They result in less drug exposure and reduced toxicity compared with traditional inhibitors since their effect is not limited by equilibrium occupancy. […] PROTAC technology was used to develop a Bcl-xL specific PROTAC (Bcl-xL-P), which targets Bcl-xL to the E3 ligase cereblon (CRBN) or VHL. ES ligases cereblon and VHL are poorly expressed in platelets.^51-53Bcl-xL and Bcl-2 dual PROTACs/degraders that link to the VHL ligand and target Bcl-xL and Bcl-2 to VHL for ubiquitination and proteasome degradation were also developed. These Bcl-xL and Bcl-2 dual PROTACs/degraders are not only potent antitumor agents but also effective senolytic agents. PROTAC 753B targets Bcl-xL and Bcl-2 for proteasome degradation by linking to E3 ligase VHL. […] We examined the effect of 753B on EtOH-induced hepatocarcinogenesis. […] Magnetic resonance imaging (MRI) can allow precise and accurate quantification of tumour volume. […]

[2] = tested on: SASP genes, liver cancer markers (Gpc3 and Afp), oncogenes (Myc, Tgfa); assay: Western blotting and Q-RT-PCR of senescence, liver cancer marker and oncogene expression in STZ/EtOH-treated livers; type: in vivo, mice
Description: (§1) PROTACs are bivalent small molecules containing a ligand that recognizes a target protein linked to another ligand that recruits a specific E3 ubiquitin ligase.^46,47 PROTAC binding induces proximity-induced ubiquitination of the target protein and its subsequent degradation by proteasomes. PROTACs act catalytically to induce protein degradation in a sub-stoichiometric manner. They result in less drug exposure and reduced toxicity compared with traditional inhibitors since their effect is not limited by equilibrium occupancy. […] PROTAC technology was used to develop a Bcl-xL specific PROTAC (Bcl-xL-P), which targets Bcl-xL to the E3 ligase cereblon (CRBN) or VHL. ES ligases cereblon and VHL are poorly expressed in platelets.^51-53Bcl-xL and Bcl-2 dual PROTACs/degraders that link to the VHL ligand and target Bcl-xL and Bcl-2 to VHL for ubiquitination and proteasome degradation were also developed. These Bcl-xL and Bcl-2 dual PROTACs/degraders are not only potent antitumor agents but also effective senolytic agents. PROTAC 753B targets Bcl-xL and Bcl-2 for proteasome degradation by linking to E3 ligase VHL. […] We examined the effect of 753B on EtOH-induced hepatocarcinogenesis. 753B was administered through intraperitoneal injection at 5 mg/kg body weight every other day starting at one week after alcohol consumption. In parallel experiments, vehicle-treated control animals received a compound that could not interact with the VHL E3 ligase. […] Magnetic resonance imaging (MRI) can allow precise and accurate quantification of tumour volume. Therefore, we performed abdominal Mill examinations before or after Gd-chelate-enhanced MRI. HCC lesions were identified based on hypointense signals in T1 and hyperintense signals in T2-weighted scan at 6 months after EtOH feeding in the diabetic murine livers. In contract few lesions were found in EtOH fed animals treated with 753B (FIG. 16D). These Mill signals matched morphological evaluations of liver cancers in the sacrificed animals (FIG. 16E). […] Ratio of liver to body weight is an indicator of hepatocyte proliferation during liver regeneration and liver cancer development.

senescent cells [3] = assay: X-gal staining for SA-β-galactosidase activity in STZ/EtOH-treated livers; type: in vivo, mice; conditions: 753B/EtOH-treated diabetic livers vs vehicle-treated controls
EtOH-HCC = assay: EtOH-induced hepatocarcinogenesis in STZ-treated diabetic mice (MRI and morphological evaluation of tumors); type: in vivo
Description: Fujii et al. developed NASH-derived HCC model (STAM model) using STZ and HFD32.^15 This model replicates clinicopathological processes from fatty liver, NASH, fibrosis to HCC under diabetic background. The very high fat diet (HFD: 60% kcal fat) in combination with STZ also could induced morphologically detectable protrusion of liver tumor nodules at postnatal week 16. We have established a novel model in which ASH-associated liver cancer occurs in STZ-treated mice within 6 months after start of alcohol consumption (FIG. 2, 12). Mice were administered STZ on day two after birth. The STZ was administered in a dose sufficient to kill insulin-producing cells, and lead to diabetic mice. The streptozotocin-treated mice were then fed a Lieber-Decarli alcohol-liquid diet (EtOH) for four months starting at 8 weeks of age. Streptozotocin (200 μg/pup) was given through subcutaneous injection into mice at postnatal day 2. This dose was used to induce pre-diabetic condition in treated mice. This alcohol-liquid diet is from Bio-Sery (F1258) and EtOH is added into the liquid diets daily.
as §1

[4] = 5-month drug administration, vs controls
[5] = Q-RT-PCR, 753B/EtOH-treated diabetic livers vs vehicle-treated controls
[6] = STZ/EtOH-treated livers, 5 mice per group

T1 sequence (Q64373 whole entry): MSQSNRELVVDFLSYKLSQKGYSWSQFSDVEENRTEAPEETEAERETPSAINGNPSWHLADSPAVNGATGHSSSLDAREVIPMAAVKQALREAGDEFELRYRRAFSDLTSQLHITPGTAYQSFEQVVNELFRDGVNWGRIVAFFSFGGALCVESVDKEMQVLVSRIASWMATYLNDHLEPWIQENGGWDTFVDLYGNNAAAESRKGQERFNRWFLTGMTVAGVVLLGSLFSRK

In the case of Cc1ncsc1-c1ccc([C@H](C)NC(=O)[C@@H]2C[C@@H](O)CN2C(=O)[C@@H](NC(=O)CCCCCCC(=O)N2CCN(C[C@]3(C)CCC(c4ccc(Cl)cc4)=C(CN4CCN(c5ccc(C(=O)NS(=O)(=O)c6ccc(N[C@H](CCN7CCOCC7)CSc7ccccc7)c(S(=O)(=O)C(F)(F)F)c6)cc5)CC4)C3)CC2)C(C)(C)C)cc1 [753B], the “collagen deposition (Sirius red staining and Western analysis)” value (liver fibrosis; [4]) is reported as “significantly lower; also recorded: little collagen deposition”, the “myofibroblast activation (aSMA immunofluorescent staining and Western blotting)” value (liver fibrosis; [4]) is reported as “significantly reduced; also recorded: few myofibroblast activation” and the “mRNA of fibrosis-related markers (aSMA, Col1a1, Col1a2, Col4a1, Col4a2, Tgf-b2, Ctgf, Pdgf-b, Spp1)” value (liver fibrosis; Q-RT-PCR, diabetic animals after 5-month drug administration, vs control compound) is reported as “significant downregulation; also recorded: lower levels”. For the same compound, the “aSMA and pro-collagen type I proteins (Western blotting)” value (liver fibrosis; STZ/EtOH/753B-treated livers) was “low levels”, the “Ishak score of liver fibrosis” value (liver fibrosis; vs controls, 5-6 livers per group) was “significantly decreased; also recorded: lower levels” and the “senolytic activity in livers” value (senescent cells [1]) was “high senolytic activity”. For the same compound, the “Bcl-xL accumulation (Western blotting)” value (Bcl-xL) was “effectively inhibited Bcl-xL accumulation”, the “Gpc3 protein expression (Western blotting)” value ([2]; 5 mg/kg i.p. every other day, five-month administration, diabetic livers, 6-month feeding of 5% ethanol) was “reduced Gpc3 expression; also recorded: blocked induction” and the “mRNA levels of SASP genes (Cdkn2a/p16, Cdkn2b/p15, Ccl2, Ccl11, Serpine1/PAI1, Ccl12)” value [2, 5] was “significant reduction; also recorded: inhibited mRNA levels”. For the same compound, the “mRNA levels of liver cancer markers (Gpc3 and Afp)” value [2, 5] was “significant reduction; also recorded: inhibited mRNA levels”, the “mRNA levels of oncogenes (Myc and Tgfa)” value [2, 5] was “significant reduction” and the “senescence by SA-β-gal activity (X-gal staining)” value (senescent cells [3]) was “little senescence; also recorded: inhibited senescent cell accumulation”. For the same compound, the “formation of tumor nodules, number” value (EtOH-HCC; [6]) was “efficiently inhibited”, the “formation of tumor nodules, volume” value (EtOH-HCC; [6]) was “efficiently inhibited” and the “ratio of liver to body weight” value (EtOH-HCC; STZ/EtOH-treated mice, 5 mice per group) was “significantly decreased”. For the same compound, the “HCC lesions in MRI” value (EtOH-HCC; T1/T2-weighted scan at 6 months after EtOH feeding) was “few lesions” and the “tumor size (diameter) of the majority of tumors” value (EtOH-HCC; morphological evaluation, STZ/EtOH-treated livers) was “small in size (<2 mM and 2-5 mm)”.
